Measurements: patent US7425565B2, “Use of benzothiopenes to treat and prevent prostate cancer” (Cedars-Sinai Medical Center, priority 2002, dated 2008)
Counter-ions that a name gives are not always drawn.

Legend:
[1] = tested on: human prostate tumor cells (CWR22R); assay: Inhibition of tumor growth in androgen-independent xenograft model (CWR22R); assay type: in vivo, nude mice; conditions: 0.85 mg/kg daily s.c., after 30 days
Text: The inventor used an androgen-independent xenograft model of human prostate tumor cells (CWR22R) to raise tumors in male and female nude mice. Tumors developed over a period of 2-3 weeks into palpable masses. 10 mice were randomly assigned to a treatment group and 10 mice were assigned to a control group. […] Mice in the control group received an injection of saline solution. After 30 days, tumors from surviving mice were surgically removed and visibly examined. Tumor size was reduced by 60% in mice from the treated group as compared to mice from the control group and female hosts.

[2] = tested on: androgen-independent prostate cancer; assay: Treatment of male patients with androgen-independent prostate cancer (Example 1); assay type: in vivo, human
Method: Three male patients were selected for treatment on the basis of established diagnosis with prostate cancer. All three patients had failed standard androgen withdrawal therapy. Average prostate-specific antigen (“PSA”) levels for each patient at the beginning of treatment was about 20-30 ng/ml. Hormone ablative therapy, in some cases aggressively administered as long as 36 months, had failed, manifested by a continued rise in PSA levels in each patient. […] Each patient continued to receive luteinizing hormone-releasing hormone (“LHRH”)-agonist therapy, despite tumor growth in its presence. This is considered standard therapy, as tumor growth is likely to be more aggressive if testosterone levels were allowed to return to normal in these patients.

[3] = tested on: androgen-independent prostate cancer; conditions: several previous clinical trials; cited from earlier work

| SMILES | reduction of tumor size vs control group [1] [%] | bone scan of the longest treated patient ([2]; 17 months since beginning therapy) | continued PSA of the longest treated patient ([2]; 17 months since beginning therapy, 60 mg/day orally) [ng/mL] | decline of PSA levels ([2]; three patients, 60 mg orally once a day for a minimum of 30 days, continued LHRH-agonist therapy) [%] | effect on androgen-independent prostate cancer [3] |
| --- | --- | --- | --- | --- | --- |
| O=C(c1ccc(OCCN2CCCCC2)cc1)c1c(-c2ccc(O)cc2)sc2cc(O)ccc12 [raloxifene HCl, Raloxifene hydrochloride] | 60 | improvement in their bone scan | < 0.4 | > 50 |  |
| CC/C(=C(\c1ccccc1)c1ccc(OCCN(C)C)cc1)c1ccccc1 [tamoxifen] |  |  |  |  | no effect |
